Results on 21 compounds are retold here after US20230077362A1 (CORTEVA AGRISCIENCE LLC, priority 2019, published 2023).

Each structure is given as a SMILES string.

Experiment [1] has as its system Cabbage Looper (Trichoplusia ni) ("CL"), second instar larvae. Nature of the experiment: Bioassay on cabbage looper (CL), 128-well diet tray assay. The following applies: for pest or weed control at 50 µg/cm2: Trichoplusia ni, read-out: CL rating; for CL rating: Table ABC, species CL, C = not tested, D = no activity noticed. Type of experiment: in vivo. Summed up:
(§1)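 Sealed trays, 25° C., 14:10 light:dark, 5–7 d. Per-well % mortality recorded, mean of eight wells reported.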

Experiment [2] deals with Beet Armyworm (Spodoptera exigua) ("BAW"), second instar larvae. Nature of the experiment: Bioassay on beet armyworm (BAW), 128-well diet tray assay. Type of experiment: in vivo. To be noted: for pest or weed control at 50 µg/cm2: Spodoptera exigua, read-out: BAW rating; for BAW rating: Table ABC, species BAW, C = not tested, D = no activity noticed. Summed up: as §1

For `CCOCc1ccc(C)cc1N1C(=O)CS/C1=N\C(=O)Nc1ccc(-c2ncn(-c3ccc(OC)cc3)n2)cc1F` [Compound J755, (Z)-1-(3-(2-(Ethoxymethyl)-5-methylphenyl)-4-oxothiazolidin-2-ylidene)-3-(2-fluoro-4-(1-(4-methoxyphenyl)-1H-1,2,4-triazol-3-yl)phenyl)urea], the pest or weed control at 50 µg/cm2 in experiment [1] and in experiment [2] was 50 to 100% throughout.

Regarding `COc1ccc(-n2cnc(-c3ccc(NC(=O)/N=C4\SCC(=O)N4c4cc(C)c(C)cc4COCC(F)(F)F)c(F)c3)n2)cc1` [Compound J756, (Z)-1-(3-(4,5-Dimethyl-2-((2,2,2-trifluoroethoxy)methyl)phenyl)-4-oxothiazolidin-2-ylidene)-3-(2-fluoro-4-(1-(4-methoxyphenyl)-1H-1,2,4-triazol-3-yl)phenyl)urea], the pest or weed control at 50 µg/cm2 in experiment [1] and in experiment [2] was 50 to 100% throughout.

Consider `COc1ccc(-n2cnc(-c3ccc(NC(=O)/N=C4\SCC(=O)N4c4cc(C)ccc4COCC(F)F)c(F)c3)n2)cc1` [Compound J757, (Z)-1-(3-(2-((2,2-Difluoroethoxy)methyl)-5-methylphenyl)-4-oxothiazolidin-2-ylidene)-3-(2-fluoro-4-(1-(4-methoxyphenyl)-1H-1,2,4-triazol-3-yl)phenyl)urea], for which the pest or weed control at 50 µg/cm2 in experiment [1] and in experiment [2] was 50 to 100% each time.

For the compound `Cc1ccc(Cc2cccnc2)c(N2C(=O)CS/C2=N\C(=O)Nc2ccc(-c3ncn(-c4ccc(C(F)(F)F)cc4)n3)cc2F)c1` [Compound J758, (Z)-1-(2-Fluoro-4-(1-(4-(trifluoromethyl)phenyl)-1H-1,2,4-triazol-3-yl)phenyl)-3-(3-(5-methyl-2-(pyridin-3-ylmethyl)phenyl)-4-oxothiazolidin-2-ylidene)urea], the pest or weed control at 50 µg/cm2 in experiment [1] and in experiment [2] was 50 to 100% each time.

Turning to `Cc1ccc(COCC(F)(F)F)c(N2C(=O)CS/C2=N\C(=O)Nc2ccc(-c3ncn(-c4cc(C(F)(F)F)cc(C(F)(F)F)c4)n3)cc2F)c1` [Compound J760, (Z)-1-(4-(1-(3,5-Bis(trifluoromethyl)phenyl)-1H-1,2,4-triazol-3-yl)-2-fluorophenyl)-3-(3-(5-methyl-2-((2,2,2-trifluoroethoxy)methyl)phenyl)-4-oxothiazolidin-2-ylidene)urea], the pest or weed control at 50 µg/cm2 was 0 to 50% in experiment [1] and 50 to 100% in experiment [2].

For the compound `CCOCc1ccc(C)cc1N1C(=O)CS/C1=N\C(=O)Nc1ccc(-c2ncn(-c3cc(C(F)(F)F)cc(C(F)(F)F)c3)n2)cc1F` [Compound J761], the CL rating entry in experiment [1] is given as “A (50-100)”. Also, in experiment [2], the BAW rating result is listed as “A (50-100)”.

On to `CCOCc1ccc(C)cc1N1C(=O)CS/C1=N\C(=O)Nc1ccc(-c2ncn(-c3cc(C(F)(F)F)cc(C(F)(F)F)c3)n2)cc1C` [Compound J763, (Z)-1-(4-(1-(3,5-Bis(trifluoromethyl)phenyl)-1H-1,2,4-triazol-3-yl)-2-methylphenyl)-3-(3-(2-(ethoxymethyl)-5-methylphenyl)-4-oxothiazolidin-2-ylidene)urea], for which the pest or weed control at 50 µg/cm2 in experiment [1] and in experiment [2] was 50 to 100% each time.

With `Cc1ccc(COCC(F)(F)F)c(N2C(=O)CS/C2=N\C(=O)Nc2ccc(-c3ncn(-c4ccc(OCC(F)(F)F)cc4)n3)cc2F)c1` [Compound J764, (Z)-1-(2-Fluoro-4-(1-(4-(2,2,2-trifluoroethoxy)phenyl)-1H-1,2,4-triazol-3-yl)phenyl)-3-(3-(5-methyl-2-((2,2,2-trifluoroethoxy)methyl)phenyl)-4-oxothiazolidin-2-ylidene)urea], the pest or weed control at 50 µg/cm2 in experiment [1] and in experiment [2] was 50 to 100% each time.

With `Cc1ccc(COCC(F)(F)F)c(N2C(=O)CS/C2=N\C(=O)Nc2ccc(-c3ncn(-c4ccc(OCC(F)(F)F)nc4)n3)cc2F)c1` [Compound J765, (Z)-1-(2-Fluoro-4-(1-(6-(2,2,2-trifluoroethoxy)pyridin-3-yl)-1H-1,2,4-triazol-3-yl)phenyl)-3-(3-(5-methyl-2-((2,2,2-trifluoroethoxy)methyl)phenyl)-4-oxothiazolidin-2-ylidene)urea], the pest or weed control at 50 µg/cm2 in experiment [1] and in experiment [2] was 50 to 100% each time.

In the case of `CCOCc1ccc(C)cc1N1C(=O)CS/C1=N\C(=O)Nc1ccc(-c2ncn(-c3ccc(OCC(F)(F)F)cc3)n2)cc1F` [Compound J766, (Z)-1-(3-(2-(Ethoxymethyl)-5-methylphenyl)-4-oxothiazolidin-2-ylidene)-3-(2-fluoro-4-(1-(4-(2,2,2-trifluoroethoxy)phenyl)-1H-1,2,4-triazol-3-yl)phenyl)urea], the pest or weed control at 50 µg/cm2 in experiment [1] and in experiment [2] was 50 to 100% throughout.

In the case of `Cc1ccc(COCC(F)(F)F)c(N2C(=O)CS/C2=N\C(=O)Nc2ccc(-c3nnn(-c4ccc(OC(F)(F)F)cc4)n3)cc2)c1` [Compound J767, (Z)-1-(3-(5-Methyl-2-((2,2,2-trifluoroethoxy)methyl)phenyl)-4-oxothiazolidin-2-ylidene)-3-(4-(2-(4-(trifluoromethoxy)phenyl)-2H-tetrazol-5-yl)phenyl)urea], the pest or weed control at 50 µg/cm2 in experiment [1] and in experiment [2] was 50 to 100% each time.

In the case of `Cc1ccc(COCC(F)F)c(N2C(=O)CS/C2=N\C(=O)Nc2ccc(-c3nnn(-c4ccc(OC(F)(F)F)cc4)n3)cc2)c1` [Compound J768, (Z)-1-(3-(2-((2,2-Difluoroethoxy)methyl)-5-methylphenyl)-4-oxothiazolidin-2-ylidene)-3-(4-(2-(4-(trifluoromethoxy)phenyl)-2H-tetrazol-5-yl)phenyl)urea], the pest or weed control at 50 µg/cm2 in experiment [1] and in experiment [2] was 50 to 100% in each case.

`Cc1ccc(COCC(F)(F)F)c(N2C(=O)CS/C2=N\C(=O)Nc2ccc(-c3ncn(-c4ccccc4)n3)cc2F)c1` [Compound J769, (Z)-1-(2-Fluoro-4-(1-phenyl-1H-1,2,4-triazol-3-yl)phenyl)-3-(3-(5-methyl-2-((2,2,2-trifluoroethoxy)methyl)phenyl)-4-oxothiazolidin-2-ylidene)urea]: the pest or weed control at 50 µg/cm2 in experiment [1] and in experiment [2] was 50 to 100% throughout.

Regarding `Cc1ccc(COCC(F)(F)F)c(N2C(=O)CS/C2=N\C(=O)Nc2ccc(-c3noc(-c4ccc(OC(F)(F)F)cc4)n3)cc2F)c1` [Compound J770, (Z)-1-(2-Fluoro-4-(5-(4-(trifluoromethoxy)phenyl)-1,2,4-oxadiazol-3-yl)phenyl)-3-(3-(5-methyl-2-((2,2,2-trifluoroethoxy)methyl)phenyl)-4-oxothiazolidin-2-ylidene)urea], the pest or weed control at 50 µg/cm2 in experiment [1] and in experiment [2] was 50 to 100% each time.

As for `Cc1ccc(COCC(F)F)c(N2C(=O)CS/C2=N\C(=O)Nc2ccc(-c3noc(-c4ccc(OC(F)(F)F)cc4)n3)cc2F)c1` [Compound J771, (Z)-1-(3-(2-((2,2-Difluoroethoxy)methyl)-5-methylphenyl)-4-oxothiazolidin-2-ylidene)-3-(2-fluoro-4-(5-(4-(trifluoromethoxy)phenyl)-1,2,4-oxadiazol-3-yl)phenyl)urea], the pest or weed control at 50 µg/cm2 in experiment [1] and in experiment [2] was 50 to 100% each time.

On to `COCc1ccc(C)cc1N1C(=O)CS/C1=N\C(=O)Nc1ccc(-c2noc(-c3ccc(OC(F)(F)F)cc3)n2)cc1F` [Compound J772, (Z)-1-(2-Fluoro-4-(5-(4-(trifluoromethoxy)phenyl)-1,2,4-oxadiazol-3-yl)phenyl)-3-(3-(2-(methoxymethyl)-5-methylphenyl)-4-oxothiazolidin-2-ylidene)urea], for which the pest or weed control at 50 µg/cm2 in experiment [1] and in experiment [2] was 50 to 100% each time.

Turning to `COCc1ccc(N(C)C)cc1N1C(=O)CS/C1=N\C(=O)Nc1ccc(-c2noc(-c3ccc(OC(F)(F)F)cc3)n2)cc1F` [Compound J773, (Z)-1-(3-(5-(Dimethylamino)-2-(methoxymethyl)phenyl)-4-oxothiazolidin-2-ylidene)-3-(2-fluoro-4-(5-(4-(trifluoromethoxy)phenyl)-1,2,4-oxadiazol-3-yl)phenyl)urea], the pest or weed control at 50 µg/cm2 in experiment [1] and in experiment [2] was 50 to 100% each time.

In the case of `Cc1ccc(COCC(F)(F)F)c(N2C(=O)C(CO)(CO)S/C2=N\C(=O)Nc2ccc(-c3ncn(-c4ccc(OC(F)(F)F)cc4)n3)cc2F)c1` [Compound J778, (Z)-1-(5,5-Bis(hydroxymethyl)-3-(5-methyl-2-((2,2,2-trifluoroethoxy)methyl)phenyl)-4-oxothiazolidin-2-ylidene)-3-(2-fluoro-4-(1-(4-(trifluoromethoxy)phenyl)-1H-1,2,4-triazol-3-yl)phenyl)urea], the pest or weed control at 50 µg/cm2 in experiment [1] and in experiment [2] was 50 to 100% each time.

Regarding `Cc1ccc(COCCC(F)(F)F)c(N2C(=O)CS/C2=N\C(=O)Nc2ccc(-c3ncn(-c4ccccc4)n3)cc2F)c1` [Compound J779, (Z)-1-(2-Fluoro-4-(1-phenyl-1H-1,2,4-triazol-3-yl)phenyl)-3-(3-(5-methyl-2-((3,3,3-trifluoropropoxy)methyl)phenyl)-4-oxothiazolidin-2-ylidene)urea], the pest or weed control at 50 µg/cm2 in experiment [1] and in experiment [2] was 50 to 100% each time.

Take `Cc1ccc(COCC(F)(F)F)c(N2C(=O)CS/C2=N\C(=O)Nc2ccc(-c3ncn(-c4ccccc4)n3)cc2C)c1` [Compound J780]: the CL rating result in experiment [1] is recorded as “A (50-100)”. The BAW rating result in experiment [2] is recorded as “A (50-100)”.

For the compound `Cc1ccc(COCCC(F)(F)F)c(N2C(=O)CS/C2=N\C(=O)Nc2ccc(-c3ncn(-c4ccccc4)n3)cc2C)c1` [Compound J781, (Z)-1-(3-(5-Methyl-2-((3,3,3-trifluoropropoxy)methyl)phenyl)-4-oxothiazolidin-2-ylidene)-3-(2-methyl-4-(1-phenyl-1H-1,2,4-triazol-3-yl)phenyl)urea], the pest or weed control at 50 µg/cm2 in experiment [1] and in experiment [2] was 50 to 100% throughout.
